Data reported in patent publication US20220033434A1, “ANDROGEN RECEPTOR NUCLEIC ACIDS AND USES THEREOF” (Avidity Biosciences, Inc., priority 2016, published 2022).
In the oligonucleotide strings, read from the 5' end, every base follows the letter of its sugar. An asterisk marks phosphorothioate; unmarked linkages are phosphodiester. Other units and linkages are bracketed, terminal groups are in braces. A string of capitals states the bases alone. d = 2'-deoxy (DNA); m = 2'-O-methyl; f = 2'-fluoro

Key:
Assay type in all cases: cell-based, human
[1] = tested on: AR FL(1); test: AR protein knock-down by Western blot after siRNA transfection in 22RV1 cells: AR FL(1); conditions: 5 nM siRNA, 50 h post transfection, compared to controls
Description: (§1) In some instances, a set of AR siRNAs were identified that were predicted to be specific in human and non-human primates (NHP) and cross-reactive with NHPs but not rodent AR mRNA. To identify AR siRNAs that regulate both full length AR and clinically relevant AR splice variants, the search for AR siRNAs was focused primarily, but not exclusively, on exons 1, 2 and 3 of the AR gene, which are common to most AR isoforms. The resulting set of 50 AR siRNAs (Tables 1-3) was assessed in two prostate cancer lines that express high levels of either clinically relevant AR splice variants (22RV1, ATCC) or a full length AR T877A LBD mutant (LNCaP, ATCC). The response of LNCaP tumors in xenograft models to AR antagonists is known to correlate well with clinical responses.
(§2) To monitor their ability to downregulate various AR isoforms, each siRNA was formulated at a single final concentration of 5 nM with a commercially-available transfection reagent (Lipofectamine RNAiMAX, Life Technologies) according to the manufacturer's “forward transfection” instructions. At 50 h (22RV1) and 72 h (LNCaP) post transfection, cells were harvested, and lysed in RIPA buffer (Pierce) supplemented with HALT protease inhibitors (Pierce) using standard procedures. The protein concentration was determined using a BCA protein concentration kit (Pierce). To monitor AR levels in these lysates, proteins (30 ug/lane) were separated by PAGE on BOLT 4-12% Bis-Tris PA gels (Life Technologies), transferred to nitrocellulose using an iBlot dry blot system (Thermo Fisher), and probed with specific antibodies against a region of the N-terminal domain of human AR that is common in known clinically relevant splice variants (N20, Santa Cruz Biotech). A second antibody against α-Tubulin was used as control (P16, Santa Cruz Biotech). Levels of these proteins in the respective cell lysates were quantified on an Odyssey imaging system (LICOR) using appropriate secondary antibodies linked to IRDyes (800CW, 680RD).

[2] = tested on: AR-SV(2); test: AR protein knock-down by Western blot after siRNA transfection in 22RV1 cells: AR-SV(2); conditions: 5 nM siRNA, 50 h post transfection, compared to controls
Description: as §1, §2

[3] = tested on: AR-SV(3); test: AR protein knock-down by Western blot after siRNA transfection in 22RV1 cells: AR-SV(3); conditions: 5 nM siRNA, 50 h post transfection, compared to controls
Description: as §1, §2

[4] = tested on: AR FL (full length AR T877A LBD mutant); test: AR protein knock-down by Western blot after siRNA transfection in LNCaP cells: AR FL; conditions: 5 nM siRNA, 72 h post transfection, compared to controls
Description: as §1, §2

XD-01830: AR siRNA with chemical modification, Id # 2824; sense X05355 (SEQ ID NO: 185), antisense X05356 (SEQ ID NO: 186) (sense mGmUfCmAfCmUfAmUfGmGfAmGfCmUfCmUfCmAfCdT*dT; antisense fGfUmGfAmGfAmGfCmUfCmCfAmUfAmGfUmGfAmCdT*dT)
% KD AR Protein 22RV1 AR FL(1) [1]: 75% | % KD AR Protein 22RV1 AR-SV(2) [2]: 72% | % KD AR Protein 22RV1 AR-SV(3) [3]: 76% | % KD AR Protein LNCaP AR FL [4]: 90%

XD-01861: AR siRNA with chemical modification, Id # 3779; sense X05417 (SEQ ID NO: 247), antisense X05418 (SEQ ID NO: 248) (sense mGmAfGmCfGmUfGmGfAmCfUmUfUmCfCmGfGmAfAdT*dT; antisense fUfUmCfCmGfGmAfAmAfGmUfCmCfAmCfGmCfUmCdT*dT)
% KD AR Protein 22RV1 AR FL(1) [1]: 90% | % KD AR Protein 22RV1 AR-SV(2) [2]: 11% | % KD AR Protein 22RV1 AR-SV(3) [3]: 51% | % KD AR Protein LNCaP AR FL [4]: 99%

XD-01844: AR siRNA with chemical modification, Id # 2962; sense X05383 (SEQ ID NO: 213), antisense X05384 (SEQ ID NO: 214) (sense mGmUfCmUfUmCfGmGfAmAfAmUfGmUfUmAfUmGfAdT*dT; antisense fUfCmAfUmAfAmCfAmUfUmUfCmCfGmAfAmGfAmCdT*dT)
% KD AR Protein 22RV1 AR FL(1) [1]: 56% | % KD AR Protein 22RV1 AR-SV(2) [2]: 54% | % KD AR Protein 22RV1 AR-SV(3) [3]: 26% | % KD AR Protein LNCaP AR FL [4]: 81%

XD-01860: AR siRNA with chemical modification, Id # 3629; sense X05415 (SEQ ID NO: 245), antisense X05416 (SEQ ID NO: 246) (sense mAmCfUmCfGmAfUmCfGmUfAmUfCmAfUmUfGmCfAdT*dT; antisense fUfGmCfAmAfUmGfAmUfAmCfGmAfUmCfGmAfGmUdT*dT)
% KD AR Protein 22RV1 AR FL(1) [1]: 90% | % KD AR Protein 22RV1 AR-SV(2) [2]: −9% | % KD AR Protein 22RV1 AR-SV(3) [3]: 4% | % KD AR Protein LNCaP AR FL [4]: 99%

XD-01845: AR siRNA with chemical modification, Id # 2966; sense X05385 (SEQ ID NO: 215), antisense X05386 (SEQ ID NO: 216) (sense mUmCfGmGfAmAfAmUfGmUfUmAfUmGfAmAfGmCfAdT*dT; antisense fUfGmCfUmUfCmAfUmAfAmCfAmUfUmUfCmCfGmAdT*dT)
% KD AR Protein 22RV1 AR FL(1) [1]: 92% | % KD AR Protein 22RV1 AR-SV(2) [2]: 92% | % KD AR Protein 22RV1 AR-SV(3) [3]: 72% | % KD AR Protein LNCaP AR FL [4]: 99%

XD-01832: AR siRNA with chemical modification, Id # 2920; sense X05359 (SEQ ID NO: 189), antisense X05360 (SEQ ID NO: 190) (sense mGmCfAmCfUmAfUmUfGmAfUmAfAmAfUmUfCmCfGdT*dT; antisense fCfGmGfAmAfUmUfUmAfUmCfAmAfUmAfGmUfGmCdT*dT)
% KD AR Protein 22RV1 AR FL(1) [1]: 93% | % KD AR Protein 22RV1 AR-SV(2) [2]: 93% | % KD AR Protein 22RV1 AR-SV(3) [3]: 73% | % KD AR Protein LNCaP AR FL [4]: 92%

XD-01824: AR siRNA with chemical modification, Id # 2741; sense X05343 (SEQ ID NO: 173), antisense X05344 (SEQ ID NO: 174) (sense mUmGfCmCfAmGfGmGfAmCfCmAfUmGfUmUfUmUfGdT*dT; antisense fCfAmAfAmAfCmAfUmGfGmUfCmCfCmUfGmGfCmAdT*dT)
% KD AR Protein 22RV1 AR FL(1) [1]: 3% | % KD AR Protein 22RV1 AR-SV(2) [2]: −32% | % KD AR Protein 22RV1 AR-SV(3) [3]: −44% | % KD AR Protein LNCaP AR FL [4]: 45%

XD-01818: AR siRNA with chemical modification, Id # 2045; sense X05331 (SEQ ID NO: 161), antisense X05332 (SEQ ID NO: 162) (sense mCmCfCmUfUmUfCmAfAmGfGmGfAmGfGmUfUmAfCdT*dT; antisense fGfUmAfAmCfCmUfCmCfCmUfUmGfAmAfAmGfGmGdT*dT)
% KD AR Protein 22RV1 AR FL(1) [1]: −6% | % KD AR Protein 22RV1 AR-SV(2) [2]: −48% | % KD AR Protein 22RV1 AR-SV(3) [3]: 25% | % KD AR Protein LNCaP AR FL [4]: 93%
